These results are taken from US8835433B2, “Optically pure diastereomers of 10-Propargyl-10-deazaaminopterin and methods of using same for the treatment of cancer” (Allos Therapeutics, Inc., priority 2010, dated 2014).

Each structure is given as a SMILES string.

The subject of data set [1] is CWR22-RV1 (prostate) cell lines. Description: MTS growth inhibition assay, CWR22-RV1. The class given is cell-based. To be noted: Homo sapiens, CWR22Rv1, separate experiments.
Data set [2] deals with SKBR-3 (breast cancer) human tumor cell line. Description: MTS growth inhibition assay, SKBR-3. The note with it: SK-BR-3, SK-BR3 (breast), 3 h treatment, 72 h recovery. The class given is cell-based. The method, then:
(§1) The agents PDX, PDX-10a, PDX-10b, were evaluated for growth inhibitory activity against, MDA-MB-435, SKBR-3 and NCI-H460 human tumor cell lines. Growth inhibition was measured by MTS assay following three hours of continuous treatment and a seventy-two hour recovery incubation. The purpose of these studies was to determine the cytotoxic activity of the compounds in the tumor cell lines studies studied.
Materials and Methods. Preparation of PDX-10a and PDX-10b was performed as discussed in Examples 1-2. The PDX compounds were diluted in dimethylsulfoxide (DMSO) at a concentration of 20 mM. From this solution a stock solution of 2 mM was made by dilution with phosphate-buffered saline (PBS). This 2 mM stock solution in 10% DMSO/90% PBS was used to make 2× concentrations of the titration series in cell growth medium which was added to the cell cultures in a 1:1 ratio to make 1× concentrations. Cell lines—The human tumor cell lines: MDA-MB-435 (melanoma), SKBR-3 (breast cancer) and NCI-H460 (lung cancer) were cultured in RPMI medium (RPMI; Nova Tech, Grand Island, N.Y.) containing ten percent dialyzed fetal bovine serum (FBS; Nova Tech). […]
Single Agent Pulse Studies—Treatment with test agents or standard agents (controls) was initiated 24 hours after plating cells (Day 1). […] Following incubation, the viable cell number was quantified by the MTS assay described below. […]
MTS Assay—Cell viability was determined using the MTS assay. […] Formazan production was quantified by spectrophotometric measurement at 490 nm and is proportional to viable cell number. […] Absorbance (OD) values were measured using a Dynex HD microplate reader at a single wavelength of 490 nm.
(§2) Data Analysis—Data from each experiment was collected and expressed as OD490 versus the log10 of the test agent concentration. […]
Background: Formazan colour is commonly taken as a measure of viable cells.

For data set [3], the system named is MDA-MB-435 (melanoma) human tumor cell line. As to the kind of experiment: MTS growth inhibition assay, MDA-MB-435. To be noted: 3 h treatment, 72 h recovery. The class given is cell-based. The method, then: as §1
(§3) Materials and Methods. Preparation of PDX-10a and PDX-10b was performed as discussed in Examples 1-2. The PDX compounds were diluted in dimethylsulfoxide (DMSO) at a concentration of 20 mM. From this solution a stock solution of 2 mM was made by dilution with phosphate-buffered saline (PBS). This 2 mM stock solution in 10% DMSO/90% PBS was used to make 2× concentrations of the titration series in cell growth medium which was added to the cell cultures in a 1:1 ratio to make 1× concentrations. Cell lines—The human tumor cell lines: MDA-MB-435 (melanoma), SKBR-3 (breast cancer) and NCI-H460 (lung cancer) were cultured in RPMI medium (RPMI; Nova Tech, Grand Island, N.Y.) containing ten percent dialyzed fetal bovine serum (FBS; Nova Tech). Once cells reached seventy percent confluency, they were trypsinized and resuspended in an alternate media (RPMI containing five percent dialyzed FBS (Hyclone, Logan, Utah). One day prior to treatment (Day 0), cultures were suspended at a concentration of 1−7.5×10^4 cell/ml and 100 μl aliquots were plated into each well of a 96-well microtiter plate at a final concentration of 1×10^3-7.5×10^3 cells/well. Cells were incubated for 24 hours at 37° C. prior to exposure with agents.
(§4) Test Agents—racemic PDX, and individual diastereomers PDX-10a and PDX-10b were prepared as described above. Cells were treated 24 hours after plating (Day 1) with vehicle (media) alone or the above test agents for three hours at concentrations between 3 μM and 10 μM.
(§5) Single Agent Pulse Studies—Treatment with test agents or standard agents (controls) was initiated 24 hours after plating cells (Day 1). Cells were incubated at 37° C. with each of the test agents or a “chemococktail” (positive control) consisting of 215 μM Etoposide, 20 μM Taxol, 38.5 nM Velcade at final concentration for three hours. Following treatment, drug was removed, growth media added, and cells incubated at 37° C. for 72 hours. Following incubation, the viable cell number was quantified by the MTS assay described below. Experiments were repeated twice at the same concentrations. Results from these studies were used to calculate an IC50 value (concentration of drug that inhibits cell growth by 50% of the vehicle) for each compound. IC50 values were generated with Prizm software.
(§6) MTS Assay—Cell viability was determined using the MTS assay. This colorimetric procedure measures conversion of the MTS reagent (a tetrazolium salt) to formazan by living cells. Formazan production was quantified by spectrophotometric measurement at 490 nm and is proportional to viable cell number. For these studies, cells were cultured and treated as listed above. At the end of the treatment, 20 μl MTS tetrazolium (1.9 mg/ml in PBS, pH 6.0) was added to the cells for 1 hour at 37° C. Absorbance (OD) values were measured using a Dynex HD microplate reader at a single wavelength of 490 nm.
as §2

The test system of data set [4] is NCI-H460 (lung cancer) human tumor cell line. As to the kind of experiment: MTS growth inhibition assay, NCI-H460. The class given is cell-based. The method, then: as §1, §3, §4, §5, §6
Data Analysis—Data from each experiment was collected and expressed as OD490 versus the log10 of the test agent concentration. Using the statistical analysis package of the Prizm analytical software (GraphPad, San Diego, Calif.), a non-linear curve fit was performed which yielded the 50% inhibition concentration of the test article (IC50).

The nature of data set [5]: Pharmacokinetics in rat (PDX-T-07034-R). The class given is in vivo. The note with it: both sexes, plasma, 5 mg/kg, racemic mixture, males and females (mean). The protocol: (§7) Bioanalytical methods were developed and validated for quantitation of the 2 pralatrexate C10 diastereomers (PDX-10a and PDX-10b) in human, rat and dog plasma and urine. The basic bioanalytical method involves extraction of PDX-10a and PDX-10b from the matrix utilizing C18 solid-phase extraction (SPE) cartridges followed by derivatization (methylation with acetyl chloride) of the diastereomers for separation detection. The derivatized extracts are injected on a chiral high-performance liquid chromatography (HPLC) column for quantitation of each diastereomer by liquid chromatography-tandem mass spectrometry (LC/MS/MS). The lower limit of quantitation (LLOQ) for both diastereomers in plasma and urine matrices was 0.5 ng/mL. […]

A short description of data set [6]: Pharmacokinetics in dog (PDX-T-07054-D). The class given is in vivo. To be noted: both sexes, dog, plasma, 0.7 mg/kg, dog, racemic mixture, males and females (mean). The protocol:
as §7

Data set [7] can be described thus: Pharmacokinetics in human (PDX-008, noncompartmental). The note with it: both sexes, human, plasma, intravenous, 30 mg/m^2, human, racemic mixture, males and females (mean). The class given is in vivo. The method, then:
Bioanalytical methods were developed and validated for quantitation of the 2 pralatrexate C10 diastereomers (PDX-10a and PDX-10b) in human, rat and dog plasma and urine. The basic bioanalytical method involves extraction of PDX-10a and PDX-10b from the matrix utilizing C18 solid-phase extraction (SPE) cartridges followed by derivatization (methylation with acetyl chloride) of the diastereomers for separation detection. The derivatized extracts are injected on a chiral high-performance liquid chromatography (HPLC) column for quantitation of each diastereomer by liquid chromatography-tandem mass spectrometry (LC/MS/MS). The lower limit of quantitation (LLOQ) for both diastereomers in plasma and urine matrices was 0.5 ng/mL.
In humans, PDX-10b clearance was approximately 50% lower for both renal clearance (CLren) and nonrenal clearance (CLnonren). The lower clearance and ˜2-fold lower volume of distribution at steady state (Vdss) of PDX-10b are likely responsible for the 2-fold higher plasma exposure of PDX-10b compared with PDX-10a that is observed in humans. However, the plasma concentration-time profiles for both diastereomers declined in parallel, and terminal elimination half-life (t1/2term) for both diastereomers was virtually identical. The biological cause for the observed stereoselectivity across species is unknown, but may be due to isomeric differences in plasma protein binding. Isomeric differences in tissue distribution and/or renal and hepatobiliary transport may contribute as well.

Where [8] appears, read: C1D1, 30 mg/m^2 (0.81 mg/kg), n = 10.
The mark [9] stands for this setting: C1D6 or C2D6, 30 mg/m^2 (0.81 mg/kg), n = 6.

The term IC50 denotes the midpoint of a concentration-inhibition curve. A higher IC50 goes with lower potency. A word on the AUC(0-inf): it is total exposure, with the tail of the curve extrapolated. The term Cmax denotes the peak of the concentration-time curve. Regarding `C#CCC(Cc1cnc2nc(N)nc(N)c2n1)c1ccc(C(=O)N[C@@H](CCC(=O)O)C(=O)O)cc1` (mixture of isomers) [PDX, (2S)-2-[[4-[(1RS)-1-[(2,4-diaminopteridin-6-yl)methyl]but-3-ynyl]benzoyl]amino]pentanedioic acid, reference compound], the 50% inhibitory concentration (IC50) in data set [1] was 8.3 nM; in data set [2] it was 27.1 nM; in data set [3] (Homo sapiens, MDA-MB-435, MDA-MB-435 (melanoma)) it was 129 nM; in data set [3] (MDA-MB-435 (melanoma)), 129 nM; in data set [4] (Homo sapiens, NCI-H460, NCI-H460 (lung), 3 h treatment, 72 h recovery, MTS), 100 nM; in data set [4] (Homo sapiens, NCI-H460, NCI-H460 repeat assay), 124 nM. The compound further displayed a half-maximal inhibitory concentration (IC50) in data set [4] (NCI-H460 repeat assay) of 124 nM. Also, the total exposure AUC(0-inf) in data set [5] (Day 1, 5 mg/kg (30 mg/m^2)) is 4870 ng·h/mL; in data set [5] (Day 85, 5 mg/kg (30 mg/m^2)), 4500 ng·h/mL; in data set [6] (Day 1, 0.7 mg/kg (14 mg/m^2)), 1560 ng·h/mL; in data set [6] (Day 281, 0.7 mg/kg (14 mg/m^2)), 1340 ng·h/mL; in data set [7] (setting [8]), 4460 ng·h/mL; in data set [7] (setting [9]) it was 3530 ng·h/mL. The highest concentration (Cmax) in data set [5] (Day 1, 5 mg/kg (30 mg/m^2)) was 19200 ng/mL; in data set [5] (Day 85, 5 mg/kg (30 mg/m^2)) it was 14300 ng/mL; in data set [6] (Day 1, 0.7 mg/kg (14 mg/m^2)) it was 1790 ng/mL; in data set [6] (Day 281, 0.7 mg/kg (14 mg/m^2)), 649 ng/mL; in data set [7] (setting [8]), 5820 ng/mL; in data set [7] (setting [9]), 4960 ng/mL.
